Experimental data published in paper PMC5216056 (Nature Communications, 2017).
Several values for one entry are separate records, joined by “and”; a condition that tells them apart may be missing. Equal entries are not always repeated. Where two headings read alike, the source gives them in different places.

How the values were obtained:
[1] = for Pct acceptor / Pct donor / Pct membrane: PAMPA; for Pct membrane: compound found in membranes; for Pampa Peff: membrane permeation coefficient
hDAGL-α = molecular target: T1, hDAGL-α (Homo sapiens, UniProt Q9Y4D2); assay: Biochemical DAGLα activity assay; details: for inhibition at 10 µM: read-out: DAGL % inhibition at 10 µM ± SD
T1 construct: expressed in transfected cells; host or cells: HEK293T (transient), membrane preparation
T1 sequence (Q9Y4D2 1-1042): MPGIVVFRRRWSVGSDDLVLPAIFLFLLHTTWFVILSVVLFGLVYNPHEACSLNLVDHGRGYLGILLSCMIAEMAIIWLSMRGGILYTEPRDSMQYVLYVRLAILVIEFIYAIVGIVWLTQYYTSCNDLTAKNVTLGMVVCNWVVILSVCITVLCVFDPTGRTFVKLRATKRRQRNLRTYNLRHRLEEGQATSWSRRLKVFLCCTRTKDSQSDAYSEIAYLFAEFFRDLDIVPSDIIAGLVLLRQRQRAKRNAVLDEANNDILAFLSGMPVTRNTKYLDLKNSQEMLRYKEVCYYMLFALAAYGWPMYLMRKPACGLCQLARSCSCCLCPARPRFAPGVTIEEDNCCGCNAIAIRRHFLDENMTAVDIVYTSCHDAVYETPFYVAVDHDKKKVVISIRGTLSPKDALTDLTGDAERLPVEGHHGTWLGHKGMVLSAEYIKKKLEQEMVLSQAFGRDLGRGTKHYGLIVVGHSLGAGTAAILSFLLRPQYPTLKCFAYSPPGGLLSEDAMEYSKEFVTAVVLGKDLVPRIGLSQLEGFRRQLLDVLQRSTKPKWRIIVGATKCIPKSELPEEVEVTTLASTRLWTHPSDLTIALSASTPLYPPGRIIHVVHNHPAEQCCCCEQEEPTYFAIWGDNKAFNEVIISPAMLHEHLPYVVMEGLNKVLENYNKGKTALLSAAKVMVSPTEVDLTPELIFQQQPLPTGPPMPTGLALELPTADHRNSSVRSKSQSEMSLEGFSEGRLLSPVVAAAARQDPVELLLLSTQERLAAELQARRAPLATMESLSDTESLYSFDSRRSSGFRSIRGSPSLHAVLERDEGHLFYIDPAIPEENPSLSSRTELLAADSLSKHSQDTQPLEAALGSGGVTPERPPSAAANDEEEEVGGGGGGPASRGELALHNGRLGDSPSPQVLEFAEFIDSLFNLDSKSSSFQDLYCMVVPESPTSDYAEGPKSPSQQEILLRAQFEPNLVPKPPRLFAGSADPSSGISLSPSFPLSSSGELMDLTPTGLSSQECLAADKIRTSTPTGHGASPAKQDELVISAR
Experimental: (§1) Cell culture and membrane preparation were performed as previously described. HEK293T cells (source: Dutch Cancer Institute) were grown in DMEM with stable glutamine and phenolred (PAA), 10% New Born Calf serum, penicillin and streptomycin. Cells were passaged every 2–3 days by resuspending in medium and seeding them to appropriate confluence. Membranes were prepared from transiently transfected HEK293T cells. One day prior to transfection 10^7 cells were seeded in a 15 cm petri dish. Cells were transfected by the addition of a 3:1 mixture of polyethyleneimine (60 μg) and plasmid DNA (20 μg) in 2 ml serum-free medium. The medium was refreshed after 24 h, and after 72 h the cells were harvested by suspending them in 20 ml medium. The suspension was centrifuged for 10 min at 1000, rpm, and the supernatant was removed. The cell pellet was stored at −80 °C until use. Cell pellets were thawed on ice and suspended in lysis buffer A (20 mM HEPES, 2 mM DTT, 0.25 M sucrose, 1 mM MgCl2, […] Benzonase). The suspension was homogenized by polytrone (3 × 7 s) and incubated for 30 min on ice. The suspension was subjected to ultracentrifugation (100,000 × g, 30 min, 4 °C, Beckman Coulter, Type Ti70 rotor) to yield the cytosolic fraction in the supernatant and the membrane fraction as a pellet. The pellet was resuspended in lysis buffer B (20 mM HEPES, 2 mM DTT). The protein concentration was determined with Quick Start Bradford assay (Biorad). The protein fractions were diluted to a total protein concentration of 1 mg ml^−1 and stored in small aliquots at −80 °C until use.
hDAGL-α activity was measured by the extent of the hydrolysis of para-nitrophenylbutyrate (PNP-butyrate) by membrane preparations from HEK293T cells (source: Dutch Cancer Institute) transiently transfected with hDAGL-α (ref. [43]). Percentage of inhibition of reference ligands was determined in comparison with an untreated control. Reactions were performed in 50 mM pH 7.2 HEPES buffer with 0.05 μg μl^−1 final protein concentration hDAGL-α transfected protein.

hCB2R [2] = molecular target: T2, hCB2R (Homo sapiens, UniProt P34972); assay: cell-based; format: cell-based; set-up: expressed in transfected cells; host or cells: Flp-In-293 (Invitrogen #R750-07), pcDNA5/FRT
T2 sequence (P34972 whole entry): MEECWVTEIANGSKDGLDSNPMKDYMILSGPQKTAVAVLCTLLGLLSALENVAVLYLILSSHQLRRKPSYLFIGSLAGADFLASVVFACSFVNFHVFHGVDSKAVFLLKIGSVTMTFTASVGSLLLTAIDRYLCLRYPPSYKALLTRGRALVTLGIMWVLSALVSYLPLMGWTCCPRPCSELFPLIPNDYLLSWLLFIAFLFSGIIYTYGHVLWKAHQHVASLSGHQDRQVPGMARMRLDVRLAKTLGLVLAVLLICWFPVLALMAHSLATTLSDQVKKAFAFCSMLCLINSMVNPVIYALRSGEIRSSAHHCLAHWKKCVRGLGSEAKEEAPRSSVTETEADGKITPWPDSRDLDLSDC

5-HT2B (h) = molecular target: T3, 5-HT2B (h) (Homo sapiens, UniProt P41595); assay: CEREP panel; format: binding; details: for inhibition at 10 µM: read-out: % inhibition 5-HT2B (h)
T3 construct: CEREP (contract assay)
T3 sequence (P41595 whole entry): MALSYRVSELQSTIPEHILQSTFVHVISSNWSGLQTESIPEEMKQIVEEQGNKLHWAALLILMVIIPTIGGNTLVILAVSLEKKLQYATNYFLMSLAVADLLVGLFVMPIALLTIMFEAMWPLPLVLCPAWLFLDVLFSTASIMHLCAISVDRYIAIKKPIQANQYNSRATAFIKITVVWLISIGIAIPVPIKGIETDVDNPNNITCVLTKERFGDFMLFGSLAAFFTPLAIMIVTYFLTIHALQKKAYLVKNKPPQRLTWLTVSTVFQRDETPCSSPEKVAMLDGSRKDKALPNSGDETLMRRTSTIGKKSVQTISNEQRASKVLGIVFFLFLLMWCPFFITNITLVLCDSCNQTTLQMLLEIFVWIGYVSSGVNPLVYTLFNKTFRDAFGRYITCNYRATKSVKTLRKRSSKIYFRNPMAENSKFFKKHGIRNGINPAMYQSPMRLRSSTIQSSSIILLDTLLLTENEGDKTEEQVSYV

mCB2R = mCB2R (Mus musculus, UniProt P47936); assay: biochemical; format: binding; set-up: from tissue; host or cells: spleen of male C57BL/6J mice
mCB2R, sequence (P47936 whole entry): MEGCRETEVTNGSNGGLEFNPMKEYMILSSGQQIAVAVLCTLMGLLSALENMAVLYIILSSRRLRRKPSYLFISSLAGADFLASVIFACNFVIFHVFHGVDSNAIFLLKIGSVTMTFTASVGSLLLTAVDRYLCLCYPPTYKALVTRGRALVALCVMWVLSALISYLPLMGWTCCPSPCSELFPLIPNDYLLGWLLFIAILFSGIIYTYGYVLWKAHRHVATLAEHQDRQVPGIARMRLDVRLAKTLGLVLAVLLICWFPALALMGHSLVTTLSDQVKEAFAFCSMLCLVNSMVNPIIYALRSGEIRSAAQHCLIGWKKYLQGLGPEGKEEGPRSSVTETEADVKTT

MAGL = molecular target: T4, MAGL (Homo sapiens, UniProt Q99685); assay: Biochemical MAGL activity assay; details: for inhibition at 10 µM: read-out: MAGL % inhibition at 10 µM ± SD
T4 construct: expressed in transfected cells; host or cells: HEK293T (transient), membrane preparation
T4 sequence (Q99685 1-303): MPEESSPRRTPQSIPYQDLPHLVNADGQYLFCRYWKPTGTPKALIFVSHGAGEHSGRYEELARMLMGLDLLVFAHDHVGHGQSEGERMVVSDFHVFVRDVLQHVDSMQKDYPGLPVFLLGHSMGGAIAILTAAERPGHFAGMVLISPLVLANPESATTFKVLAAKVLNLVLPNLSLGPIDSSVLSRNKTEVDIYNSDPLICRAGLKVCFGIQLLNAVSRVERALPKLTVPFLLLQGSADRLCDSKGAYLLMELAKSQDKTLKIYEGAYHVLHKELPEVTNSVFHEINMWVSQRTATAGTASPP
Experimental: as §1
Percentage of inhibition of reference ligands was determined in comparison with an untreated control. […] Fluorescence was measured in 5 min intervals for 60 min.

hCB2R [3] = molecular target: T2, hCB2R; assay: cell-based; format: cell-based; details: for Emax: read-out: Emax ± SEM β-AR recruitment hCB2R
hCB2R [4] = molecular target: T2, hCB2R; assay: cell-based; format: cell-based; set-up: expressed in transfected cells; host or cells: Flp-In-293 (Invitrogen #R750-07), pcDNA5/FRT; remark: listed apart in the source
[5] = antagonists in presence of EC80 of CP55940

Row | Compound | Pct acceptor [1] [%] | Pct donor [1] [%] | Pct membrane [1] [%] | Pampa Peff [1] [cm/s*10-6] | DAGL % inhibition at 10 µM ± SD (hDAGL-α) [%] | Emax ± SEM pERK hCB2R (hCB2R [2]) | pEC50 ± SEM pERK hCB2R (hCB2R [2]) | % inhibition 5-HT2B (h) (5-HT2B (h); 10 µM) [%] | pKi ± SEM mCB2R (mCB2R; mouse spleen membranes) | MAGL % inhibition at 10 µM ± SD (MAGL) [%] | Emax ± SEM β-AR recruitment hCB2R (hCB2R [3]) | pEC50 ± SEM β-AR recruitment hCB2R (hCB2R [3]) | Emax ± SEM cAMP hCB2R (hCB2R [4]) | pEC50 ± SEM cAMP hCB2R (hCB2R [4]) | other results
1 | CCCCCCC(C)(C)c1cc(OC)c([C@@H]2C=C(CO)[C@@H]3C[C@H]2C3(C)C)c(OC)c1 [HU308] | 2.8 | 23.1 | 74.3 | 2.53 |  |  |  |  |  |  |  |  |  |  | inhibition at 10 µM (hDAGL-α): 42 ± 3%; Emax (hCB2R [2]; read-out: Emax ± SEM pERK hCB2R): 93 ± 2%; inhibition at 10 µM (5-HT2B (h)): 28%; Ki (mCB2R): 70.8 nM; inhibition at 10 µM (MAGL): 7 ± 13%; Emax (hCB2R [3]): 57 ± 10%; Emax (hCB2R [4]; read-out: Emax ± SEM cAMP hCB2R): 98 ± 1%
2 | CN1CCCC[C@H]1Cn1cc(C(=O)c2cc([N+](=O)[O-])ccc2I)c2ccccc21 [(S)-AM1241] | 2.2 | 34 | 64 | 1.41 | 9 ± 9 | 60 ± 11 | 6.92 ± 0.22 | 93 | 6.74 ± 0.2 | -4 ± 18 | 29 ± 8 | 6.54 ± 0.44 | 78 ± 1 | 7.40 ± 0.11 | CB2R Selectivity (binding, mouse) (mCB2R; 10^(pKi CB2R-pKi CB1R)): 2 fold
3 | CCCC(C)(C)c1ccc2c(c1)OC(C)(C)[C@@H]1CC=C(C)C[C@@H]21 [JWH133] | 2.3 | 36.1 | 61.7 | 1.86 | 30 ± 7 | 96 ± 13 | 6.19 ± 0.07 | 3 | 7.69 ± 0.23 | -20 ± 5 | 62 ± 11 | 7.81 ± 0.22 | 98 ± 1 | 8.38 ± 0.09 | CB2R Selectivity (binding, mouse) (mCB2R): 40 fold; CB2R Selectivity β-AR recruitment (hCB2R [3]): 275 fold
4 | CCCCCCC(C)(C)c1cc(OC)c(C2=C[C@H]3CC[C@]2(CO)C3(C)C)c(OC)c1 [HU910] | 1 | 42 | 57 | 0.45 | 36 ± 1 |  |  | 87 | 6.88 ± 0.17 | 20 ± 12 |  |  |  |  | pEC50 ± SEM pERK hCB2R (hCB2R [2]; [5]): 5.50 ± 0.10 and < 5.5; Emax ± SEM pERK hCB2R (hCB2R [2]; normalized to 10 µM CP55940): 104 ± 9%; pEC50 ± SEM β-AR recruitment hCB2R (hCB2R [3]; [5]): 7.75 ± 0.03; Emax ± SEM β-AR recruitment hCB2R (hCB2R [3]; normalized to 10 µM CP55940, negative = inhibition of EC80 of CP55940): 48 ± 6%; pEC50 ± SEM cAMP hCB2R (hCB2R [4]; [5]): 8.41 ± 0.13; Emax ± SEM cAMP hCB2R (hCB2R [4]; normalized to 10 µM CP55940): 98 ± 1%
5 | Cc1c(C(=O)c2cccc3ccccc23)c2cccc3c2n1[C@H](CN1CCOCC1)CO3 [WIN55212-2] | 0.5 | 50.6 | 49 | 0.25±0.22 | -9 ± 12 |  |  | 70 | 7.28 ± 0.17 | 3 ± 18 |  |  |  |  | 
6 | CCCCCCC(C)(C)c1ccc([C@@H]2C[C@H](O)CC[C@H]2CCCO)c(O)c1 [CP55940] |  |  |  | 0 |  |  |  |  |  |  |  |  |  |  | inhibition at 10 µM (hDAGL-α): 20 ± 16%; inhibition at 10 µM (5-HT2B (h); 10 µM): 96%; Ki (mCB2R; mouse spleen membranes, read-out: pKi ± SEM mCB2R (converted)): 0.603 nM; inhibition at 10 µM (MAGL): 5 ± 16%; Emax (hCB2R [3]): 80 ± 5%
7 | COc1ccc(C(=O)c2c(C)n(CCN3CCOCC3)c3cc(I)ccc23)cc1 [AM630] | 0.37 | 35.4 | 64.3 | 0.2 | 6 ± 12 | -92 ± 4 | 5.09 ± 0.06 | 65 | 7.66 ± 0.23 | 4 ± 16 | -124 ± 6 | 6.15 ± 0.08 | -152 ± 13 | 7.56 ± 0.05 | 
